# Experiments:
# [1] = tested on: rice seeds; conditions: in vivo
# Method: Seed was tested for germination in an incubator and also flown onto a flooded field under standard agricultural practices.
# [2] = tested on: rice seeds; assay: Seedling growth of pregerminated rice seed coated with gibberellic acid, sown by plane in flooded field
# [3] = tested on: rice seeds; assay: Stand establishment of pregerminated rice seed treated with mancozeb slurry, flown onto flooded fields; type: in vivo; conditions: slurry at 19-22 fluid ounces per hundred pounds of seed
compound,measurement,setting,value
"N#Cc1nn(-c2c(Cl)cc(C(F)(F)F)cc2Cl)c(N)c1[S+]([O-])C(F)(F)F (stereo not drawn) [fipronil, 5-amino-1-(2,6-dichloro-4-trifluoromethylphenyl)-4-trifluoromethylsulfinyl-3-cyanopyrazole]",appearance of pregerminated seeds after machine mixing,[1],appeared undamaged
same,stand establishment,[1],the same as untreated seed
C=C1C[C@]23C[C@@]1(O)CC[C@H]2[C@@]12C=C[C@H](O)[C@@](C)(C(=O)O1)[C@H]2[C@@H]3C(=O)O [gibberellic acid],size of root relative to shoot,[2]; 3 to 10 days after sowing,approximately the same size
same,resistance of seedlings to wind,"[2]; 3 to 10 days after sowing, located in the soil at a depth of 0 to 2 mm",highly resistant to wind
same,appearance of germinated seeds after machine mixing,"[2]; […], radicles 1 to 8 mm",appeared undamaged
"[[1,2-ethanediylbis[carbamodithioato]](2-)]manganese mixture with [[1,2-ethanediylbis [carbamodithioato]](2—)]zinc [mancozeb]",stand of rice plants established,[3],acceptable stand
